Results reported in US20230117155A1, “FRACTION EXTRACT OF MELISSA OFFICINALIS LEAVES AND NOVEL PHARMACEUTICAL COMPOSITION INCLUDING SAME” (priority 2020, published 2023).
“Also recorded” adds a separate entry of the source.

tested on: HUVECs (human umbilical vein endothelial cells); experiment: HUVEC tube formation, angiogenesis inhibitory activity assay; type: cell-based; details: single ingredient, final concentration 50 μg/ml; FIG. 9
Experimental: A 48-well plate was coated with 200 μl of 10% matrigel, and incubated at 4° C. After 4 hours the temperature was raised to 37° C., and 1 hour later, the test substances listed in Tables 2 and 3 below were added to a final concentration of 50 μg/ml, and then 5×10^4 HUVECs (human umbilical vein endothelial cells) were added to each well, and pictures were taken the next day.

SMILES	angiogenesis inhibitory activity in HUVEC tube formation assay
CCOC(=O)Cc1ccc(O)c(O)c1 [EDPA, Ethyl 2-(3,4-dihydroxyphenyl) acetate]	angiogenesis inhibitory activities; also recorded: highest angiogenesis inhibitory activity
COC(=O)[C@@H](Cc1ccc(O)c(O)c1)OC(=O)/C=C/c1ccc(O)c(O)c1 [RME, Rosmarinic acid methyl ester]	angiogenesis inhibitory activities
O=C(/C=C/c1ccc(O)c(O)c1)O[C@H](Cc1ccc(O)c(O)c1)C(=O)O [Rosmarinic acid]	angiogenesis inhibitory activities
O=C(O)/C=C/c1ccc(O)c(O)c1 [caffeic acid]	angiogenesis inhibitory activities
